According to patent publication US20040192641A1, “Special preparation of anticancer drugs made by novel nanotechnology” (priority 2003, published 2004):
Marks after values point to notes of the source that are not given here.

Legend:
tumor S-180 = experiment: Stained dead tumor cells in peritoneal fluid of tumor-bearing mice (CUR); type: in vivo; conditions: 12th day of tumor S-180 inoculation
From the text: The acceptable criterion for determining the anti-tumor efficacy of the free CUR and PK-CUR-NP are the determination of the life span prolongation.
The number of dead cells in the peritoneal fluid of mice treated with PK-CUR-NP increased life span when compared to free CUR.

[1] = system: malignant melanocarcinoma B16; experiment: Inhibition of tumor cell proliferation, B16; type: cell-based, human; conditions: Mus musculus; 1 μg/ml, 72 hours
Procedure: (§1) Human tumor cell lines: Hela leukemia HL-60, malignant melanocarcinoma B16, oral epidermoid carcinoma (KB), lung carcinoma (A549), breast carcinoma MCF-7, adenocarcinoma of stomach.
(§2) Animal tumor cell lines: Walker carcinoma, LLC-WRC-256, malignant melanoma (RMMI 1846), 3T3, and S-180 sarcoma (CCRF-180). All lines were routinely cultured in the RPMI1640 medium supplemented 20% fetal calf serum. The experiment was carried out in 96 microplate, each well had 5×10^5 cells and given desired concentration of 1 μg/ml (1×10^−6 g/ml) drug. Then the plate was incubated at 37° C. in an atmosphere of humidified air enriched with 5 percent carbon dioxide for 72 hours.
(§3) Inhibition percent rate of tumor cell proliferation was obtained according to the bellow formula. [formula]

P388 leukemia cells = experiment: Anti-leukemia activity against P388 lymphocytic leukemia in mice (survival); type: in vivo; conditions: Example 54; i.p. once a day; dose 1, 10, 20 mg/kg/day, group not stated
Procedure: Animals: Adult DBA/2J male mice, 6 to 8 weeks old. All animals weighed approximately 25 g when used in experiments. Mice were assigned randomly to treatment and control groups. Each member of which received identical dosed (i.p.) of PK or 0.9% NaCl solution for all injections. Volumes were 0.01 ml/g body weight.
Tumor: L1210 or P388 leukemia cells induced in mice by inoculation with L1210 or P388 leukemia cells (1.0×10^5).
The leukemia cells were passed i.p. weekly. L1210 or P388 cells were cultured at 37° C. in RPMI-1640 medium (GIBCO) without antibiotics and supplemented with 10% fetal calf serum.
After the tumor implantation (1×10^5 leukemia cells), PK was injected intraperitoneally once a day. The treatment was started between the end of 2nd and 6th day after inoculation. Dose of PK was 25 mg/kg/day for PK groups. Control mice were treated with same value of 0-9% NaCl. Anti-leukemia activity was expressed as T/C %. T is median survival days of treated group and C is that of control group. A T/C value was greater that 100% means the treated mice is surviving longer than the control mice. […] The statistical significance of data was determined by student's test. […]
After the tumor implantation (1×10^5 leukemia cells), PK-HHT-SSL was injected intraperitoneally once a day. […] Anti-leukemia activity was expressed as T/C %. […] The statistical significance of data was determined by student's test.

[2] = Pharmacokinetic study: tissue AUC; type: in vivo, mice; conditions: 0.5 mg HHT/kg via the tail
Procedure: Present example described Pharmacokinetic studied of NP. Free HHT and PK-HHT-NP were given to mice via the tail at dose of 0.5 mg HHT/kg. Other methods are as same as method of Example 22.

breast carcinoma MCF-7 = experiment: Inhibition of tumor cell proliferation, MCF-7; type: cell-based; conditions: Homo sapiens, MCF7; 1 μg/ml, 72 hours
Procedure: as §1, §2, §3

L-120 leukemia = experiment: Survival of mice bearing leukemia (free HHT vs PK-HHT-NP); type: in vivo
From the text: Methods: L-120 leukemia mice, weight 20-22 g were used in the experiment. […] The dose of PK-HHT-NP is equivalent of free HHT. (All the following comparing experiments are used same methods).

HL-60 cells = experiment: Differentiation of human leukemic cells (HL-60), Example 57; type: cell-based
Procedure: Cell Lines. HL-60 cells were established from a patient with acute myeloid leukemia. The cells were cultured in culture flasks with RPMI plus 10% FCS.
Studies of Induction of Differentiation. Differentiation of HL-60 cells was assessed by their abilities to produced superoxide as measured by reduction of NBT, by NSE staining and by morphology as detected on cytospin preparations stained with Diff-Quick stain Set, and by analysis of membrane-bound differentiation markers with two-color immunofluorescence. Briefly, cells were preincubated at 4° C. for 60 min in 10% human AB serum and then with FITC-conjugated mouse IgGI isotype control. Analysis of fluorescence was performed on a flow cytometer.
Cell Cycle Analysis. The cell cycle was analyzed by flow cytometry after 60 h of incubation of HL-60 cells either with or without HHT (10^−8 M) as described. Briefly, the cells were fixed in cold methanol and incubated for 30 min at 4° C. in the dark with a solution of 50 μg/ml propidium iodide, 1 mg/ml Rnase, and 0.1% NP40. Analysis was performed immediately after staining using the CELLFIT program whereby the S-phase was calculated with Rfit model.
Clonogenic Assay in soft Agar. HL-60 cells were culture in a two-layer soft agar system for 10 days without adding any growth factors as described previously, and colonies were counted using an inverted microscope. […]

sarcoma-180 solid tumors = experiment: Effect on sarcoma-180 solid tumors in mice (survival); type: in vivo; conditions: Example 54; percentage survival, 30 days observation after tumor cell inoculation

| SMILES | Number of stained dead tumor cells (1 × 10^6 cells mL^−1) (tumor S-180) | inhibition at 1 µg/mL [1] [%] | Survival time (P388 leukemia cells) [days] | Tissue AUC, Blood [2] [µg·h/g] | Tissue AUC, Cancer [2] [µg·h/g] | Tissue AUC, Heart [2] [µg·h/g] | Tissue AUC, Kidney [2] [µg·h/g] | Tissue AUC, Liver [2] [µg·h/g] | Tissue AUC, Lung [2] [µg·h/g] | Tissue AUC, Spleen [2] [µg·h/g] | inhibition at 1 µg/mL (breast carcinoma MCF-7) [%] | Survival time T/L days (L-120 leukemia; Dose 1 mg/kg) | T/C (%) (L-120 leukemia; Dose 1 mg/kg) | Survival time T/L days (L-120 leukemia; Dose 5 mg/kg) | T/C (%) (L-120 leukemia; Dose 5 mg/kg) | NBT (%) (HL-60 cells) | Mean survival (%) (sarcoma-180 solid tumors) |
| --- | --- | --- | --- | --- | --- | --- | --- | --- | --- | --- | --- | --- | --- | --- | --- | --- | --- |
| C=C1C[C@@]2(O)O[C@@]3(C[C@H]2C(C)C)[C@@H](C)CC[C@@H]13 [CUR, Curcumol] | 5.36 ± 0.95 1 × 10^6 cells mL^−1 |  |  |  |  |  |  |  |  |  |  |  |  |  |  |  |  |
| COC(=O)C[C@](O)(CCCC(C)(C)O)C(=O)O[C@@H]1C(OC)=C[C@]23CCCN2CCc2cc4c(cc2[C@H]13)OCO4 [HHT, Homoharringtonine] |  | 73.8 ± 8.1 | 19.8 ± 4.2 | 3.0 | 12.0 | 89.2 | 243.2 | 168.8 | 138.9 | 192.8 | 78.5 ± 7.9 | 5/9 | 55.6 | 27/9 | 300 | 65* % | 58.6 |
